From patent US20260285850A1, “SUBSTITUTED OXAZOLIDINONES AND IMIDAZOLINONES AS HERBICIDES” (FMC CORPORATION, priority 2023, published 2026)

How the values were obtained:
Assay type in all cases: in vivo
[1] = test system: wheat (Triticum aestivum); assay: Test A postemergence application, visual injury rating 0-100
Method in brief: (§1)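 Plants in a loam and sand soil blend were treated with each test chemical, in a non-phytotoxic solvent system including surfactant, either sprayed on seeded soil before emergence or applied after emergence at the one- to two-leaf stage. Ten days later in the greenhouse, plants were compared with untreated controls and visually rated from 0 (no effect) to 100 (complete control).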

[2] = test system: horseweed (Erigeron canadensis); assay: as above
Method in brief: as §1

[3] = test system: blackgrass (Alopecurus myosuroides); assay: as above
Method in brief: as §1

[4] = test system: ragweed (common ragweed, Ambrosia artemisiifolia); assay: as above
Method in brief: as §1

[5] = test system: palmer (palmer amaranth, palmer pigweed, Amaranthus palmeri); assay: as above
Method in brief: as §1

[6] = test system: ryegrass, Italian (italian ryegrass, Lolium multiflorum); assay: as above
Method in brief: as §1

[7] = test system: corn (Zea mays); assay: as above
Method in brief: as §1

[8] = test system: soybean (Glycine max); assay: as above
Method in brief: as §1

[9] = test system: galium (catchweed bedstraw, Galium aparine); assay: as above
Method in brief: as §1

[10] = test system: oat, wild (wild oat, Avena fatua); assay: as above
Method in brief: as §1

[11] = test system: green foxtail (Setaria viridis); assay: as above
Method in brief: as §1

[12] = test system: barnyardgrass (Echinochloa crus-galli); assay: as above
Method in brief: as §1

[13] = test system: kochia (Bassia scoparia); assay: as above
Method in brief: as §1

[14] = test system: wheat (Triticum aestivum); assay: Test A preemergence soil spray, visual injury rating 0-100; conditions: 10 days
Method in brief: as §1

[15] = test system: blackgrass (Alopecurus myosuroides); assay: as above; conditions: 10 days
Method in brief: as §1

[16] = test system: ragweed (common ragweed, Ambrosia artemisiifolia); assay: as above; conditions: 10 days
Method in brief: as §1

[17] = test system: palmer (palmer amaranth, palmer pigweed, Amaranthus palmeri); assay: as above; conditions: 10 days
Method in brief: as §1

[18] = test system: ryegrass, Italian (italian ryegrass, Lolium multiflorum); assay: as above; conditions: 10 days
Method in brief: as §1

[19] = test system: corn (Zea mays); assay: as above; conditions: 10 days
Method in brief: as §1

[20] = test system: soybean (Glycine max); assay: as above; conditions: 10 days
Method in brief: as §1

[21] = test system: oat, wild (wild oat, Avena fatua); assay: as above; conditions: 10 days
Method in brief: as §1

[22] = test system: green foxtail (Setaria viridis); assay: as above; conditions: 10 days
Method in brief: as §1

[23] = test system: barnyardgrass (Echinochloa crus-galli); assay: as above; conditions: 10 days
Method in brief: as §1

[24] = test system: kochia (Bassia scoparia); assay: as above; conditions: 16 g ai/ha, 0 to 100 scale, 10 days
Method in brief: as §1

[25] = test system: sedge, umbrella (small-flower umbrella sedge, Cyperus difformis); assay: Test B flooded paddy test, visual plant response rating 0-100; conditions: 250 g ai/ha, Flood, applied to paddy water, evaluated after 13 days
Method in brief: (§2)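 Compounds applied to standing paddy water (3 cm above soil, maintained for the test duration) on 2-leaf-stage plants; visual rating vs controls at 13 days, greenhouse.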

[26] = test system: barnyardgrass (Echinochloa crusgalli); assay: as above; conditions: 250 g ai/ha, Flood, applied to paddy water, evaluated after 13 days
Method in brief: as §2

[27] = test system: rice (Oryza sativa); assay: as above; conditions: 250 g ai/ha, Flood, applied to paddy water, evaluated after 13 days
Method in brief: as §2

[28] = test system: ducksalad (Heteranthera limosa); assay: as above; conditions: 250 g ai/ha, Flood, applied to paddy water, evaluated after 13 days
Method in brief: as §2

[29] = 62 g ai/ha, postemergence, 10 days, 0 = no effect, 100 = complete control
[30] = Postemergence, 16 g ai/ha, greenhouse 10 days, 0 no effect, 100 complete control
[31] = 62 g ai/ha, 0 = no effect, 100 = complete control

CCOC(=O)C1C=CC(NC(=O)C2(C)CN(c3cccc(OC(F)(F)F)c3)C(=O)O2)C1 (stereo not drawn) [Compound 102] was tested. Which “Wheat plant response rating (0-100)” value [1, 29] did it give?
Its value is 20.

And the “Wheat plant response rating (0 to 100 scale)” value [1, 30]?
Its value is 20.

And the “Horseweed plant response rating (0-100)” value [2, 29]?
Its value is 10.

And the “Horseweed plant response rating (0 to 100 scale)” value [2, 30]?
The value was 20.

And the “Blackgrass plant response rating (0-100)” value [3, 29]?
Its value is 90.

And the “Blackgrass plant response rating (0 to 100 scale)” value [3, 30]?
The value was 50.

And the “Ragweed plant response rating (0-100)” value [4, 29]?
Its value is 20.

And the “Ragweed plant response rating (0 to 100 scale)” value [4, 30]?
Its value is 0.

What about the “Pigweed, Palmer plant response rating (0-100)” value [5, 29] of the same molecule?
The value was 10.

What about the “Pigweed, Palmer plant response rating (0 to 100 scale)” value [5, 30] of the same molecule?
The value was 0.

What about the “Ryegrass, Italian plant response rating (0-100)” value [6, 29] of the same molecule?
Its value is 70.

And the “Ryegrass, Italian plant response rating (0 to 100 scale)” value [6, 30]?
Its value is 20.

What about the “Corn plant response rating (0-100)” value [7, 29] of the same molecule?
Its value is 60.

And the “Corn plant response rating (0 to 100 scale)” value [7, 30]?
The value was 0.

What about the “Soybean plant response rating (0-100)” value [8, 29] of the same molecule?
Its value is 50.

What about the “Soybean plant response rating (0 to 100 scale)” value [8, 30] of the same molecule?
The value was 30.

And the “Galium plant response rating (0-100)” value [9, 29]?
The value was 70.

And the “Galium plant response rating (0 to 100 scale)” value [9, 30]?
The value was 50.

And the “Oat, Wild plant response rating (0-100)” value [10, 29]?
Its value is 60.

And the “Oat, Wild plant response rating (0 to 100 scale)” value [10, 30]?
The value was 20.

What about the “Foxtail, Green plant response rating (0-100)” value [11, 29] of the same molecule?
Its value is 20.

And the “Foxtail, Green plant response rating (0 to 100 scale)” value [11, 30]?
The value was 10.

And the “Barnyardgrass plant response rating (0-100)” value [12, 29]?
The value was 80.

What about the “Barnyardgrass plant response rating (0 to 100 scale)” value [12, 30] of the same molecule?
The value was 30.

What about the “Kochia plant response rating (0-100)” value [13, 29] of the same molecule?
The value was 70.

And the “Kochia plant response rating (0 to 100 scale)” value [13, 30]?
Its value is 0.

What about the “Wheat plant response rating” value ([14]; 16 g ai/ha, 0 to 100 scale) of the same molecule?
The value was 0.

What about the “Wheat plant response rating (0-100)” value [14, 31] of the same molecule?
The value was 20.

What about the “Blackgrass plant response rating” value ([15]; 16 g ai/ha, 0 to 100 scale) of the same molecule?
The value was 0.

And the “Blackgrass plant response rating (0-100)” value [15, 31]?
Its value is 30.

What about the “Ragweed plant response rating” value ([16]; 16 g ai/ha, 0 to 100 scale) of the same molecule?
Its value is 0.

What about the “Ragweed plant response rating (0-100)” value [16, 31] of the same molecule?
Its value is 0.

And the “Pigweed, Palmer plant response rating” value ([17]; 16 g ai/ha, 0 to 100 scale)?
The value was 0.

And the “Pigweed, Palmer plant response rating (0-100)” value [17, 31]?
Its value is 0.

What about the “Ryegrass, Italian plant response rating” value ([18]; 16 g ai/ha, 0 to 100 scale) of the same molecule?
Its value is 0.

And the “Ryegrass, Italian plant response rating (0-100)” value [18, 31]?
The value was 70.

And the “Corn plant response rating” value ([19]; 16 g ai/ha, 0 to 100 scale)?
The value was 0.

And the “Corn plant response rating (0-100)” value [19, 31]?
The value was 10.

What about the “Soybean plant response rating” value ([20]; 16 g ai/ha, 0 to 100 scale) of the same molecule?
The value was 0.

What about the “Soybean plant response rating (0-100)” value [20, 31] of the same molecule?
The value was 0.

And the “Oat, Wild plant response rating” value ([21]; 16 g ai/ha, 0 to 100 scale)?
Its value is 0.

What about the “Oat, Wild plant response rating (0-100)” value [21, 31] of the same molecule?
Its value is 30.

What about the “Foxtail, Green plant response rating” value ([22]; 16 g ai/ha, 0 to 100 scale) of the same molecule?
Its value is 0.

What about the “Foxtail, Green plant response rating (0-100)” value [22, 31] of the same molecule?
Its value is 10.

What about the “Barnyardgrass plant response rating” value ([23]; 16 g ai/ha, 0 to 100 scale) of the same molecule?
The value was 0.

And the “Barnyardgrass plant response rating (0-100)” value [23, 31]?
The value was 0.

And the “Kochia plant response rating” value [24]?
The value was 0.

What about the “Plant response rating, Sedge, Umbrella (0 to 100 scale, 0 is no effect and 100 is complete control)” value [25] of the same molecule?
The value was 0.

And the “Plant response rating, Barnyardgrass (0 to 100 scale, 0 is no effect and 100 is complete control)” value [26]?
The value was 0.

What about the “Plant response rating, Rice (0 to 100 scale, 0 is no effect and 100 is complete control)” value [27] of the same molecule?
The value was 0.

And the “Plant response rating, Ducksalad (0 to 100 scale, 0 is no effect and 100 is complete control)” value [28]?
The value was 0.
